Source: PMC12005787, “Synthetic Lethality of SHP2 and XIAP Suppresses Proliferation and Metastasis in KRAS‐mutant Nonsmall Cell Lung Cancer” (Advanced Science, 2025)
Where two headings read alike, the source gives them in different places.

Assays:
TCPTP = molecular target: T1, TCPTP (Homo sapiens, UniProt P17706); experiment: PTPs activity assay (DiFMUP); format: biochemical
T1 construct: His; made in house; host or cells: E. coli
T1 sequence (P17706 1-415): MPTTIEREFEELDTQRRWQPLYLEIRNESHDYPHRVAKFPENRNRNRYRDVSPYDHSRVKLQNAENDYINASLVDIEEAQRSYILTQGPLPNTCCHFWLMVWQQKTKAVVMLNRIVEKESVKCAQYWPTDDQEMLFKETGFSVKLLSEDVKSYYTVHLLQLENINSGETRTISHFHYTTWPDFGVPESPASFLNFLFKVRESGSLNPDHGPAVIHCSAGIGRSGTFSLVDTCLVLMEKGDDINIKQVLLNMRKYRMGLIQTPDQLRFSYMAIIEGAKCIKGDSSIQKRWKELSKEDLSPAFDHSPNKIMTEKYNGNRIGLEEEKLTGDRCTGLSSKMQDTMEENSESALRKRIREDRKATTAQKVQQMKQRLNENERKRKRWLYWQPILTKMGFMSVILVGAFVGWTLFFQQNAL
Method: (§1) Catalytic activity screening methods for PTPs using candidate compounds were performed as previously described.^[ [77] ^] In brief, soluble fusion PTP proteins, His‐ΔSHP2, encompassing the peptide from amino acids 205–593 retaining PTP activity, His‐ΔSHP2^K325A, His‐ΔSHP1, encompassing the peptide from amino acids 202–595 retaining PTP activity, His‐PTP1B, His‐HePTP, His‐VHR, and His‐TCPTP were cloned, expressed, and purified in E. coli. After determining protein concentration using bicinchoninic acid (BCA) assay kit, 1 µg fusion protein, 10 µM library compound were added in 100 µL reaction mixture (55 mM 4‐(2‐hydroxyethyl)‐1‐piperazineethanesulfonic acid [HEPES], 100 mM sodium chloride [NaCl], 0.5 mM ethylenediaminetetraacetic acid [EDTA], 1 mM dithiothreitol [DTT], 0.01% Triton X‐100, 0.002% bovine serum albumin [BSA], and 0.1% dimethyl sulfoxide [DMSO]) and incubated at 37 °C for 30 min in the dark, with Na3VO4 as positive control. The detection substrate DiFMUP (50 µM) was promptly added to each reaction and functioned at 37 °C for 30 min in the dark. The fluorescence intensity was then measured using Multimode Plate Reader (λa = 358 nm, λe = 455 nm, PerkinElmer, USA).

VHR = molecular target: T2, VHR (Homo sapiens, UniProt P51452); experiment: PTPs activity assay (DiFMUP); format: biochemical
T2 construct: His; made in house; host or cells: E. coli
T2 sequence (P51452 whole entry): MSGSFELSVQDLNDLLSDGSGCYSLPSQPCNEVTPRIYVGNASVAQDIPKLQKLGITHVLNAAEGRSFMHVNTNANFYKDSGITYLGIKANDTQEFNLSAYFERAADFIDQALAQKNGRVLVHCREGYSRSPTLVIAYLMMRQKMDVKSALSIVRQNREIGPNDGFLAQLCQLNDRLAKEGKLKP
Method: as §1

HePTP = molecular target: T3, HePTP (Homo sapiens, UniProt P35236); experiment: PTPs activity assay (DiFMUP); format: biochemical
T3 construct: His; made in house; host or cells: E. coli
T3 sequence (P35236 1-360): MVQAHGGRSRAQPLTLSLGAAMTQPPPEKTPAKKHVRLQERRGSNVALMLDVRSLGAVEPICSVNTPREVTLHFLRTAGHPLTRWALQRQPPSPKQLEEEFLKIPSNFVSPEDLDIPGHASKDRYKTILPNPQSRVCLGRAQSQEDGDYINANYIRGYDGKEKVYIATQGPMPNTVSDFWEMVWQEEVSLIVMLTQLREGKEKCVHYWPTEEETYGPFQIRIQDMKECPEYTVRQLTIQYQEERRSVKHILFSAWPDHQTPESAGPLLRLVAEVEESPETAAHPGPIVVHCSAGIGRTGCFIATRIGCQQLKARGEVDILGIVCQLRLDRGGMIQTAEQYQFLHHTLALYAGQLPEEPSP
Method: as §1

ΔSHP2 = molecular target: T4, ΔSHP2 (Homo sapiens, UniProt Q06124); experiment: PTPs activity assay (DiFMUP); format: biochemical
T4 construct: His‐ΔSHP2, encompassing the peptide from amino acids 205–593 retaining PTP activity; His; made in house; host or cells: E. coli
T4 sequence (Q06124 205-593): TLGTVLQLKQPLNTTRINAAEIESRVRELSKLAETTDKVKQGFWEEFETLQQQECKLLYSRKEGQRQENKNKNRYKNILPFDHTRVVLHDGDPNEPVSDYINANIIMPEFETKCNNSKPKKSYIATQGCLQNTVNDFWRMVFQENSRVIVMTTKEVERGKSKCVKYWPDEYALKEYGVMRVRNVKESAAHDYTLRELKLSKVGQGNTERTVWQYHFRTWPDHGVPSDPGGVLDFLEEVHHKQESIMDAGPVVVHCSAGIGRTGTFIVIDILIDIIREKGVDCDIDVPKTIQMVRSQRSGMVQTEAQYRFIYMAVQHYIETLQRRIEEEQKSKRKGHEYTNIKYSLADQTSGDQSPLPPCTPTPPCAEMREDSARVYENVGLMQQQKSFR
Method: as §1

PTP1B = molecular target: T5, PTP1B (Homo sapiens, UniProt P18031); experiment: PTPs activity assay (DiFMUP); format: biochemical; conditions: read-out: IC50 of PTPs PTP1B
T5 construct: His; made in house; host or cells: E. coli
T5 sequence (P18031 1-435): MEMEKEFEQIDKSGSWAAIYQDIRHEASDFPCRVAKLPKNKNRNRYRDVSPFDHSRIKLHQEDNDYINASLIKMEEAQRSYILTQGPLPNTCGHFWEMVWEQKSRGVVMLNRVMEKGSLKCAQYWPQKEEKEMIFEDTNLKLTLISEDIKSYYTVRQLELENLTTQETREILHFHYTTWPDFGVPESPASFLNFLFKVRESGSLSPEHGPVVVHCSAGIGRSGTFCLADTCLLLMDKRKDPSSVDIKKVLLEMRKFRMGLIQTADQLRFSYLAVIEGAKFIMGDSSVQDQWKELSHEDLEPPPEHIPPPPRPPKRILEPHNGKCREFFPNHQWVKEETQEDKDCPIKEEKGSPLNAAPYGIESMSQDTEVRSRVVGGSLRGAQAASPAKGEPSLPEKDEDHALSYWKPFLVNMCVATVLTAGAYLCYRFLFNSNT
Method: as §1

ΔSHP1 = molecular target: T6, ΔSHP1 (Homo sapiens, UniProt P29350); experiment: PTPs activity assay (DiFMUP); format: biochemical
T6 construct: His‐ΔSHP1, encompassing the peptide from amino acids 202–595 retaining PTP activity; His; made in house; host or cells: E. coli
T6 sequence (P29350 202-595, stated change not applied): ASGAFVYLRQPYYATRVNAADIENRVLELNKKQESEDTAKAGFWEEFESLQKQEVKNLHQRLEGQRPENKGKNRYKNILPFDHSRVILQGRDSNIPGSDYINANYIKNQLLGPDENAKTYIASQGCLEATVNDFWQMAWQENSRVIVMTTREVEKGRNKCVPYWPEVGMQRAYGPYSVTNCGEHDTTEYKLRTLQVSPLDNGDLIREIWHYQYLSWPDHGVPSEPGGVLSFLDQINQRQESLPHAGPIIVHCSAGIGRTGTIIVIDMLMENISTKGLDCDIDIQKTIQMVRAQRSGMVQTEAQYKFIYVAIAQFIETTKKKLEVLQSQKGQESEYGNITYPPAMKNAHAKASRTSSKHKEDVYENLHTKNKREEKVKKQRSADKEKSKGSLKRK
Method: as §1

SW620 cells = experiment: Cell viability assay (CCK-8); format: cell-based; conditions: Homo sapiens, SW-620
Method: (§2) supplies are listed in Supplementary Table S5. The relevant reagents for protein extraction from Escherichia coli are listed in Supplementary Table S6. Inhibitory effects of embelin on KRAS-mutant and wild-type cells are listed in Supplementary Table S7.
(§3) For the adherent cell viability assay, cells in the logarithmic growth phase were seeded in 96-well culture plates at a density of 5×103 well-1 and incubated overnight. Diluted compounds or DMSO were added, or specific treatments were incubated at 37 °C and 5% CO2 for 24 h or 48 h. Cell viability was determined using CCK-8 or CellLightTM Cell Viability Assay Kit, according to the manufacturer's protocol. The luminescence signals of the treated samples were normalized to those of the DMSO group. […]

HCC827 cells = experiment: Cell viability assay (CCK-8); format: cell-based; conditions: Homo sapiens; HCC827, RAS-wild type, 24 h
Method: as §2, §3

IC50 (SW620 cells; SW620, 48 h, read-out: IC50 at 48 h) | IC50 (SW620 cells; SW620, KRAS G12V, 24 h, read-out: IC50 at 24 h) | IC50 (HCC827 cells) | SMILES | IC50 (TCPTP) | IC50 (VHR) | IC50 (HePTP) | IC50 (ΔSHP2) | IC50 (PTP1B) | IC50 (ΔSHP1)
– | – | – | O=C1Nc2ccc(I)cc2/C1=C/c1cc(Br)c(O)c(Br)c1 [S2872, GW5074] | 322 µM | 131 µM | 472 µM | 33.8 µM | 110 µM | 246 µM
5.06 ± 0.45 µM | 18.6 ± 0.4 µM | 4.95 ± 0.28 µM | CCCCCCCCCCCC1=C(O)C(=O)C=C(O)C1=O [Embelin] | > 200 µM | > 200 µM | > 200 µM | 10.5 µM | > 200 µM | > 200 µM
